Data reported in ChEMBL document CHEMBL1201862, “PubChem BioAssay data set” (2004).
The source made the active and inactive calls. No stated cut-off is given here; in the data, actives have a measured IC50 and inactives only a lower limit.

Target: Envelope glycoprotein gp160 (Human immunodeficiency virus 1, UniProt Q6QLK5)
Assay: cell-free HIV fusion peptide-binding blockers – biochemical, uHTS, fluorescence dequenching, […] (AID 1986)

Chain of Envelope glycoprotein gp160 (Q6QLK5 whole entry, the tested form may be a part): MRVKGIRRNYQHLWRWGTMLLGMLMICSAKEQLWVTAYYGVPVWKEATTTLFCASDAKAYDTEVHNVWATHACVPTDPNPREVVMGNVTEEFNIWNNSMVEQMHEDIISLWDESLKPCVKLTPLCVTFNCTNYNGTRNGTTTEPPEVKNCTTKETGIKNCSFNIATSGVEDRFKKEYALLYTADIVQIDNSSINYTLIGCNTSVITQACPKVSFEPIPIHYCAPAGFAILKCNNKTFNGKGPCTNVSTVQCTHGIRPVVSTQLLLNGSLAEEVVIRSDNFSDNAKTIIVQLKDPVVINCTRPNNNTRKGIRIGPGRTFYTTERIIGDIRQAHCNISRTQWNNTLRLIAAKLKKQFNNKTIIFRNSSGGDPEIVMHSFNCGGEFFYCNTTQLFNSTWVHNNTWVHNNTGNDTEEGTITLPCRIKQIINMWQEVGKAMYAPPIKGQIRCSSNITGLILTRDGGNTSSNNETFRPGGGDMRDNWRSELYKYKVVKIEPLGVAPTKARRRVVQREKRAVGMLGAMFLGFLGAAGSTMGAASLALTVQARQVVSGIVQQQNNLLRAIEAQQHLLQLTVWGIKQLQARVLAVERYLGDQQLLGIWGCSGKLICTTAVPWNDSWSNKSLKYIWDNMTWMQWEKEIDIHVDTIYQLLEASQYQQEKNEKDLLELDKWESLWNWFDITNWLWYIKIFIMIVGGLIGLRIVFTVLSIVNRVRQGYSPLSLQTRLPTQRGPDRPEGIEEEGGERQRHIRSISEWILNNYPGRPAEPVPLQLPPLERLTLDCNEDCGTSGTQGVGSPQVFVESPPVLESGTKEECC

**Q.** For Cc1ccc(N2C(=O)/C(=C\Nc3ccccc3-c3nnc(S)nc3O)c3ccccc3C2=O)c(C)c1, which IC50 is on record?
**A.** 23.9 µM (active)
